Data taken from the NIST ThermoML archive (doi:10.1016/j.jct.2014.06.004).

Legend:
[1] = xn = mol fraction of the nth substance listed; conditions: 100 kPa, Liquid; for speed of sound: Frequency=3 MHz, Sing-around technique in a fixed-path interferometer; for mass density: Vibrating tube method
[2] = refractive index (Na D-line) (dimensionless); xn = mol fraction of the nth substance listed; conditions: 100 kPa, Liquid, Standard Abbe refractometry

CCCCCCC(=O)O [heptanoic acid] + CCC(=O)O
Conditions | mass density, [1] [kg/m3] | refractive index, [2] | speed of sound, [1] [m/s]
293.15 K, x1 = 0.0539 | 985.8 | 1.39 | 1176
293.15 K, x1 = 0.1023 | 979.3 | 1.3929 | 1185
293.15 K, x1 = 0.2037 | 967.5 | 1.3982 | 1202
293.15 K, x1 = 0.3021 | 957.8 | 1.4026 | 1217
293.15 K, x1 = 0.4007 | 949.6 | 1.4066 | 1231
293.15 K, x1 = 0.5015 | 942.3 | 1.4102 | 1244
293.15 K, x1 = 0.6051 | 935.9 | 1.4135 | 1257
293.15 K, x1 = 0.7009 | 930.7 | 1.4162 | 1267
293.15 K, x1 = 0.8016 | 925.8 | 1.4188 | 1277
293.15 K, x1 = 0.9002 | 921.5 | 1.4212 | 1287
293.15 K, x1 = 0.95 | 919.5 | 1.4223 | 1291
293.15 K, x1 = 1 | 917.7 | 1.4234 | 1295
298.15 K, x1 = 0.0539 | 980.5 | 1.388 | 1158
298.15 K, x1 = 0.1023 | 974.2 | 1.3909 | 1166
298.15 K, x1 = 0.2037 | 962.5 | 1.3961 | 1184
298.15 K, x1 = 0.3021 | 953 | 1.4006 | 1199
298.15 K, x1 = 0.4007 | 944.9 | 1.4045 | 1213
298.15 K, x1 = 0.5015 | 937.7 | 1.4081 | 1226
298.15 K, x1 = 0.6051 | 931.1 | 1.4114 | 1239
298.15 K, x1 = 0.7009 | 926.3 | 1.4142 | 1249
298.15 K, x1 = 0.8016 | 921.4 | 1.4169 | 1260
298.15 K, x1 = 0.9002 | 917.2 | 1.4192 | 1269
298.15 K, x1 = 0.95 | 915.3 | 1.4203 | 1273
298.15 K, x1 = 1 | 913.5 | 1.4214 | 1278
303.15 K, x1 = 0.0539 | 975.2 | 1.3859 | 1139
303.15 K, x1 = 0.1023 | 969 | 1.3888 | 1148
303.15 K, x1 = 0.2037 | 957.5 | 1.394 | 1165
303.15 K, x1 = 0.3021 | 948.1 | 1.3985 | 1180
303.15 K, x1 = 0.4007 | 940.2 | 1.4024 | 1195
303.15 K, x1 = 0.5015 | 933.2 | 1.406 | 1208
303.15 K, x1 = 0.6051 | 926.9 | 1.4094 | 1220
303.15 K, x1 = 0.7009 | 921.9 | 1.4121 | 1231
303.15 K, x1 = 0.8016 | 917.1 | 1.4148 | 1242
303.15 K, x1 = 0.9002 | 913 | 1.4171 | 1251
303.15 K, x1 = 0.95 | 911.1 | 1.4183 | 1256
303.15 K, x1 = 1 | 909.3 | 1.4194 | 1260
308.15 K, x1 = 0.0539 | 970 | 1.3838 | 1120
308.15 K, x1 = 0.1023 | 963.8 | 1.3866 | 1129
308.15 K, x1 = 0.2037 | 952.5 | 1.3919 | 1146
308.15 K, x1 = 0.3021 | 943.3 | 1.3963 | 1162
308.15 K, x1 = 0.4007 | 935.5 | 1.4003 | 1176
308.15 K, x1 = 0.5015 | 928.6 | 1.4039 | 1190
308.15 K, x1 = 0.6051 | 922.4 | 1.4073 | 1202
308.15 K, x1 = 0.7009 | 917.5 | 1.4101 | 1213
308.15 K, x1 = 0.8016 | 912.8 | 1.4127 | 1224
308.15 K, x1 = 0.9002 | 908.8 | 1.4151 | 1233
308.15 K, x1 = 0.95 | 906.9 | 1.4162 | 1238
308.15 K, x1 = 1 | 905.1 | 1.4173 | 1242
313.15 K, x1 = 0.0539 | 964.7 | 1.3816 | 1101
313.15 K, x1 = 0.1023 | 958.6 | 1.3845 | 1110
313.15 K, x1 = 0.2037 | 947.5 | 1.3897 | 1128
313.15 K, x1 = 0.3021 | 938.4 | 1.3942 | 1144
313.15 K, x1 = 0.4007 | 930.8 | 1.3982 | 1158
313.15 K, x1 = 0.5015 | 924 | 1.4018 | 1172
313.15 K, x1 = 0.6051 | 918 | 1.4052 | 1185
313.15 K, x1 = 0.7009 | 913.1 | 1.408 | 1196
313.15 K, x1 = 0.8016 | 908.5 | 1.4107 | 1206
313.15 K, x1 = 0.9002 | 904.5 | 1.4131 | 1216
313.15 K, x1 = 0.95 | 902.7 | 1.4142 | 1220
313.15 K, x1 = 1 | 900.9 | 1.4153 | 1225
